According to patent publication US20260176628A1, “TARGETED EPIGENETIC EDITING AS NOVEL THERAPY FOR MALIGNANT GLIOMA” (The Regents of the University of California, priority 2022, published 2026):

Experiments:
MGMT CpG island = assay: Bisulfite sequencing (BiSEQ) of TA clones; type: cell-based, human; details: for location of methylated CpG sites: LN18 dCas9-DNMT3A-CD/sgRNA clones, Region 1 (sgRNA4) or Region 2 (sgRNA1, 2, 3)
Description: FIG. 2 Bisulfite sequencing of representative clones with induced methylation patterns of CpG sites at CRISPR-targeted regions within the MGMT CpG island. (a) Map of MGMT CpG island, 762 bp in length, encompassing promoter, exon 1, enhancer, and intron 1 regions. Comprehensive map of the MGMT gene with superimposed locations of Illumina probes (yellow boxes) as well as exon (salmon), intron (purple), and promoter/upstream (gray) regions. Locations of complementary sequences to the four sgRNAs are as shown. Open star, half-closed star and closed star regions indicate locations of differentially methylated Illumina probes. F1/R1 and F2/R2 indicate nested PCR primer pairs for Region 1 and Region 2, respectively. Inset: MGMT CpG island (individual CpG sites in light green) and relative locations of Region 1 and Region 2. CpG sites 22, 57, 72, and 96 indicate the specific sites flanking each region, numbered in order from 5′ to 3′ within the CpG island. Differentially methylated regions are shown (DMR1 and DMR2), located within assayed Region 1 and 2, respectively. MSP region is also shown within DMR2. Genetic regions and positions on Chromosome 10 were determined using the UCSC genome browser (GRCh37/hg19 assembly) and the 850K array probe annotation file provided by Illumina. (b) Lollipop schematic illustrating the distribution of CpG methylation sites in each representative clonal population (red circle=methylated site; gray circle=unmethylated site). Genomic DNA from LN18 cells containing either dCas9-DNMT3A/non-specific sgRNA or dCas9-DNMT3A/sgRNAs underwent sodium bisulfite treatment, followed by nested PCR amplification. Amplicons of Region 1 and Region 2 were obtained separately and used to generate individual clones for each region via TA cloning. Abbreviations for individual clone nomenclature (e.g., “4-NSC1” vs. “13-NSC1”): “4”=Region containing sgRNA4 target sequence; “13”=Region containing sgRNA 1, 2, 3 target sequences. “NSC” vs. “SgR” indicates whether clone source was transfected with non-specific sgRNA or sgRNA1, 2, 3, 4. Numbers following NSC or SgR designation indicate individual clone numbers. Each row of the schematic (per category, NSC or SgR) represents a single clone. Regional CpG sites as per Malley et al (2011): DMR1=CpG 25-50; DMR2=CpG 73-90; MSP=CpG 76-87 (MSP-F=CpG 76-80; MSP-R=CpG 84-87). Core/minimal promoter=CpG 50-62; Enhancer=CpG 82-87. […] Blue arrows indicate CpG sites that are methylated (converted from T-G to C-G). Region 1 includes the sequence targeted by sgRNA4 (s4). Region 2 includes the sequence targeted by sgRNA 1, 2 and 3 (s1, s2, s3).
Bisulfite Sequencing. DNA was isolated using DNEasy Blood & Tissue Kit (Qiagen, Catalog #69506). Bisulfite conversion was accomplished using EZ DNA Methylation-Gold (Zymo Research, Catalog #D5005) per kit protocol. Nested PCR primers were used as follows: […]
Region 1: First PCR primer pair F4/R4; second PCR pair F5/R4.
Region 2: First PCR primer pair F1/R1; second PCR pair F1/SeqR.
Sequencing reactions were performed using BigDye Terminator v3.1 Cycle Sequencing Kit (ThermoFisher, Cat #433750) with sequencing primers (R4 primer=Region 1; SeqR primer=Region 2); samples were purified by PCR Clean-Up Performa Spin Columns (EdgeBio Cat #13266) and submitted for Sanger sequencing analysis (Laragen, Culver City, CA).
TA Cloning. Sodium bisulfite-treated genomic DNA underwent nested PCR as above, for either Region 1 or 2. […]

LN18 human glioma cells [1] = assay: MTT survival assay, TMZ sensitivity; type: cell-based; details: TMZ 25 μM or 100 μM, 5 days, vs DMSO
Procedure: FIG. 4 Effects of dCas9-DNMT3A-CD/MGMT-specific sgRNA targeted methylation on the sensitivity of glioma cells to temozolomide. […] Negative control: LN18 NSC cells. The “n” indicates the number of separate experiments performed for each cell type. Results were normalized to the average negative control treatment condition (drug vehicle DMSO). TMZ concentrations ranged from 25 µM to 100 µM. Horizontal bars for all figures represent post hoc Tukey's multiple comparisons test results for groups of interest following two-way ANOVA (“ns” indicates “p>0.05”; * indicates p<0.05; ** indicates p<0.01; *** indicates p<0.001; **** indicates p<0.0001). (a) TMZ sensitivity measured via MTT survival assays in LN18 cells co-expressing dCas9-DNMT3A-CD (d3A) and MGMT-targeting sgRNAs (sg1, 2, 3, 4) compared to NSC lines. […] MTT cell survival was calculated by subtracting […] for TMZ-treated cells (25 µM and 100 µM, 5 days) versus DMSO treatment control condition, followed by normalization to the average control condition.
Cell Survival Assays. […] Formazan product was extracted by cell lysis with DMSO (300 μL) and measured (560 nm absorbance with background subtraction of 660 nm). […]

LN18 human glioma cells [2] = assay: Clonogenic assay, TMZ sensitivity; type: cell-based; details: TMZ 12 days total treatment, vs DMSO
MGMT = biological target: T1, MGMT (Homo sapiens, UniProt P16455); details: Phase II clinical trial, cited from earlier work
T1 construct: host or cells: patients (clinical trial)
T1 sequence (P16455 1-207): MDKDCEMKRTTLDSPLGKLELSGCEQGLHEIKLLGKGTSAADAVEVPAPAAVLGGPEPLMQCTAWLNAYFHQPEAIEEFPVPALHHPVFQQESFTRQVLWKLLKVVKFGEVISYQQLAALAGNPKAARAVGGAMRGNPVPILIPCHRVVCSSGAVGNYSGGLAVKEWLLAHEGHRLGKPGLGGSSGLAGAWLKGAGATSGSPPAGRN

5′-AGGCGCCCTCACTTCGCCGT-3′ (guide (5'-AGGCGCCCTCACTTCGCCGT-3'; as printed in the source, key not given here) [sgRNA2]
location of methylated CpG sites (MGMT CpG island): CpG 77, 81-89

5′-AGGGCATGCGCCGACCCGGT-3′ (guide (5'-AGGGCATGCGCCGACCCGGT-3'; as printed in the source, key not given here) [sgRNA4]
location of methylated CpG sites (MGMT CpG island): CpG 22-38 | methylation radius upstream from sgRNA (MGMT CpG island; Region 1, to upstream 5′ limit of amplicon (CpG 22)): 20 bp

5′-CTTTGCGTCCCGACGCCCGC-3′ (guide (5'-CTTTGCGTCCCGACGCCCGC-3'; as printed in the source, key not given here) [sgRNA3]
location of methylated CpG sites (MGMT CpG island): CpG 77, 81-89

5′-GGTGCGCACCGTTTGCGACT-3′ (guide (5'-GGTGCGCACCGTTTGCGACT-3'; as printed in the source, key not given here) [sgRNA1]
location of methylated CpG sites (MGMT CpG island): CpG 77, 81-89

5′-GTATTACTGATATTGGTGGG-3′ (chemistry not given here) [NSC]
TMZ sensitivity (MTT survival) (LN18 human glioma cells [1]): Essentially no TMZ sensitivity | TMZ sensitivity (clonogenic survival) (LN18 human glioma cells [2]): Essentially no TMZ sensitivity

Nc1nc(OCc2ccccc2)c2nc[nH]c2n1 [O-6-benzylguanine]
clinical benefit (MGMT): limited benefits | toxicity (MGMT; including off-target bone marrow suppression): severe dose-limiting toxicities
